Legend:
[1] = tested on: human liver microsomes (CYP3A4, CYP1A2, CYP2C9); assay: Identification of the P450 isozyme involved in the activation (human microsomes with isozyme inhibitors); format: in vitro ADME; details: 0-100 μM inhibitor, 250 μM prodrug
Procedure: Prodrugs are evaluated for human microsome-catalyzed conversion to parent compound in the absence and presence of specific inhibitors of three major P450 isozymes: ketoconazole (CYP3A4), furafylline (CYP1A2), and sulfaphenazole (CYP2C9).
Methods: Reactions (0.5 ml @ 37° C.) consist of 0.2 M KH2PO4, 13 mM glucose-6-phosphate, 2.2 mM NADP^+, 1 unit of glucose-6-phosphate dehydrogenase, 0-2.5 mg/ml human microsomal protein (In Vitro Technologies, Inc.), 250 μM prodrug, and 0-100 μM P450 isozyme inhibitor. Reactions are stopped by addition of methanol to a concentration of 60%, filtered ([…]), and lyophilized. Samples are resuspended in HPLC buffer (10 mM phosphate pH 5.5, 2.5 mM octyl-triethyl-ammonium), loaded onto a YMC C8 HPLC column (250×4.6 mm), and eluted with a methanol gradient to 80%. Formation of parent drug is confirmed by co-elution with an authentic parent drug standard.

[2] = tested on: parent cell line (AHH-1 TK+/−) which does not express CYP3A4; assay: Compound 1.1 activity in parent lymphoblastoid cells not expressing CYP3A4 (colony forming ability); details: non-CYP3A4 expressing cells, 24 hours exposure, 14 days culture
Procedure: Following drug exposure, cells are diluted to 10 cells/ml and cultured for 14 days to determine colony forming ability.

[3] = molecular target: T1, recombinant human P450-isozyme, CYP3A4 (Homo sapiens, UniProt P08684); assay: Activation of Compound 1.1 in vitro by recombinant CYP3A4; format: in vitro ADME; details: 1 mg/ml Baculosomes, 100 μM Compound 1.1, 2 mM NADPH, 37° C.
T1 construct: purchased Panvera Corp., Madison, Wis; host or cells: baculovirus-infected insect cells (microsomes, Baculosomes)
T1 sequence (P08684 whole entry): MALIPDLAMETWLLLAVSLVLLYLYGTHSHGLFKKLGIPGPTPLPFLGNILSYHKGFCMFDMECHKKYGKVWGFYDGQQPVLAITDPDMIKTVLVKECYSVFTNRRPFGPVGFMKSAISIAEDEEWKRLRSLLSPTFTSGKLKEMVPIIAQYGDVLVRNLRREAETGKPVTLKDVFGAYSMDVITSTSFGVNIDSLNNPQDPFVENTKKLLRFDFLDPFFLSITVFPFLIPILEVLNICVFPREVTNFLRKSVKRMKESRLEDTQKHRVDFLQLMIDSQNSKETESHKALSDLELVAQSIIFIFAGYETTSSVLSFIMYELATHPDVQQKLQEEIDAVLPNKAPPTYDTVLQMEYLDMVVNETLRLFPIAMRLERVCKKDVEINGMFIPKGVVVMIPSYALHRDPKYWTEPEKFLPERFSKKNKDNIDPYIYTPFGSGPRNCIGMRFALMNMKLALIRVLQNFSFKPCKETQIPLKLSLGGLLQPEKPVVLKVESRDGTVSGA
Procedure: Activation of Compound 1.1 was evaluated in reactions containing microsomes from baculovirus-infected insect cells co-expressing recombinant human P450-isozyme, CYP3A4, and cytochrome P450 reductase (Panvera Corp., Madison, Wis.).
Methods: Reaction mixtures (0.5 ml @ 37° C.) consisted of 1 mg/ml Baculosomes, 100 μM Compound 1.1, 2 mM NADPH and 100 mM KH2PO4 buffer. Reactions were incubated for 30 minutes in an Eppendorf Thermomixer 5436 at 37° C., and reciprocal shaking speed setting 6. 100 μl aliquots were collected at 0, 10, 20 and 30 minutes and quenched with 1.5 volumes of methanol. These extracts were spun for 10 minutes at 14,000 rpm in an Eppendorf microfuge and the supernatants were lyophilized to remove the methanol. The dried supernatant pellets were resuspended in 100 μl 20 mM potassium phosphate buffer, pH 6.3, clarified by centrifugation, and analyzed by HPLC as described in Example A.

rat hepatocytes = assay: Activation of Compound 1.1 to Etoposide in rat hepatocytes; format: in vitro ADME
Procedure: Methods: Hepatocytes were prepared from fed Sprague-Dawley rats (250-300 g) according to the procedure of Berry and Friend (Berry, M. N., Friend, D. S. J. Cell Biol. 43, 506-520 (1969)) as modified by Groen (Groen, A. K. et al. Eur J. Biochem 122, 87-93 (1982)). Hepatocytes (75 mg wet weight/ml) were incubated in 1 ml Krebs-bicarbonate buffer containing 10 mM glucose, and 1 mg/ml BSA. Incubations were carried out in a 95% oxygen, 5% carbon dioxide atmosphere in closed, 50-ml Falcon tubes submerged in a rapidly shaking water bath (37° C.). A 10 mM stock solution of Compound 1.1 was prepared in methanol, and then diluted into the cell suspension or Krebs-bicarbonate buffer to yield a final concentration of 100 μM. […] The cell extracts in the acid layers were neutralized, and the intracellular prodrug metabolite content analyzed by reverse phase HPLC with use of a Beckman Ultrasphere ODS column (4.6×150 mm). The column was equilibrated with 20 mM potassium phosphate buffer, pH 6.3, and eluted with a gradient to 100% methanol. Detection was at 284 nm. Peaks on the chromatograms were identified by comparison to the retention times and spectra of standards of prodrug and parent compound.

[4] = Tissue homogenate activity (activation in homogenates from various tissues); format: in vitro ADME, rat; details: 100 μM, 1 hour
Procedure: Compound 1.1 is tested for activation in homogenates from various tissues to assess the specificity-of liver activation.
Methods: Rats are anesthetized under halothane and tissues including liver, kidney, brain, heart, stomach, spleen, muscle, lung, and testis are excised and frozen in liquid nitrogen. Tissues are then homogenized in 1 to 3 volumes of 50 mM Tris-HCl, 154 mM KCL, 1 mM EGTA, pH 7.4. The homogenates are centrifuged at 10,000 rpm and 4° C. for 30 minutes and the supernatant recovered. Liver cytosol is prepared by centrifuging the crude liver extract for 1 hour at 40,000 rpm and […]. Reaction mixtures consist of 50 mM KH2PO4 pH 7.4, 13 mM glucose-6-phosphate, 2 mM NADP+, 10 units of glucose-6-phosphate dehydrogenase, 100 μM Compound 1.1 and tissue homogenate or liver cytosol at a protein concentration of 8.5 mg/ml. Reactions are incubated at 37° C. Aliquots are taken after 0 and 1 hour of incubation, and extracted with 60% methanol. The methanolic extracts are centrifuged at 14,000 rpm, and filtered prior to analysis by HPLC.

[5] = Liver delivery of Etoposide following administration to rat; format: in vivo
Procedure: At appropriate time points following drug administration, animals are lightly anesthetized with halothane. The peritoneal cavity is then opened and a blood sample is obtained from the abdominal vena cava and the liver freeze-clamped and excised.
The blood samples are heparinized and plasma is prepared. Plasma samples (100 μL) are mixed with perchloric acid or methanol, vortexed, and then clarified by centrifugation. The supernatants are analyzed for Etoposide by HPLC as described in Example A.
Livers are immediately homogenized in 3 volumes of 10% perchloric acid (w/w), and the extracts clarified by centrifugation at 2500×g (5 minutes). The resulting supernatants are removed and neutralized with 0.3 volumes of 3M KOH/3M KHCO3. The neutralized liver extracts are then spun in an Eppendorf microfuge at 10,000 rpm (20 minutes, 4° C.). The supernatants are analyzed for Etoposide as described above.

rat embryos in culture = rat embryos in culture (Teratology 39, 31-37 (1989)); cited from earlier work

Cc1nc2c([nH]1)c(=O)n(C)c(=O)n2Cc1ccco1 [furafylline]
inhibition of formation of parent drug by P450 isozyme inhibitor [1]: no significant inhibition

COc1cc(C2c3cc4c(cc3C(OC3OC5COC(C)OC5C(O)C3O)C3COC(=O)C23)OCO4)cc(OC)c1OP1(=O)OCCC(c2ccncc2)O1 (stereo not shown) [Compound 1.1, 4′-O-(2-oxo-4-pyridyl-1,3,2-dioxaphosphorinan-2-yl)-etoposide]
cytotoxicity (inhibition of cell colony formation) [2]: substantial reduction cytotoxic activity
rate of Etoposide phosphate formation [3]: 386 nmoles Etoposide phosphate/nmole CYP3A4/h
stability in cell-free incubations (rat hepatocytes; Krebs-bicarbonate buffer without cells, 100 μM, 37° C.): stable
intracellular levels of Etoposide (rat hepatocytes; rat hepatocytes, 100 μM Compound 1.1, 2-hour time point): approximately 40 nmoles/gram of cells
activation to Etoposide phosphate and free Etoposide (rat hepatocytes; rat hepatocytes, 100 μM, 37° C.): activated to Etoposide
activation in crude rat liver homogenate ([4]; 8.5 mg/ml protein, 37° C.): depletion of the prodrug and formation of parent compound
activation in other tissue homogenates ([4]; kidney, brain, heart, stomach, spleen, muscle, lung, testis): fails to result in appreciable activation
activation in liver cytosol ([4]; liver cytosol without microsomal P450 enzymes, 37° C.): does not result in activation
liver specificity ([5]; in vivo, relative to free etoposide): enhanced liver specificity
area under the curve of Etoposide in liver ([5]; rat, oral or intravenous, compared to administration of free Etoposide): higher
levels of Etoposide in plasma ([5]; rat, oral or intravenous, compared to free Etoposide): Reduced levels

Nc1ccc(S(=O)(=O)Nc2ccnn2-c2ccccc2)cc1 [sulfaphenazole]
inhibition of formation of parent drug by P450 isozyme inhibitor [1]: no significant inhibition

C=CC(=O)c1ccccc1 [Phenyl vinyl ketone]
teratogenic activity (rat embryos in culture): lacks teratogenic activity

CC(=O)N1CCN(c2ccc(OCC3COC(Cn4ccnc4)(c4ccc(Cl)cc4Cl)O3)cc2)CC1 (stereo not shown) [Ketoconazole, ketoconazole]
inhibition of formation of parent drug by P450 isozyme inhibitor [1]: inhibit the formation parent drug in a dose-dependent fashion
inhibition of formation of parent drug by P450 isozyme inhibitor ([1]; listed as ketoconozole): inhibition of drug formation

— patent publication US7303739B2, “Prodrugs for liver specific drug delivery” (Metabasis Therapeutics, Inc., priority 1999, dated 2007)
